Test results reported in US11407738B2 (Achillion Pharmaceuticals, Inc., priority 2015, dated 2022).

Target: Human Factor D (Homo sapiens (Human), UniProt P00746)
Assay: Human Factor D assay
Assay type: biochemical
Conditions: Factor D inhibition, substrate Z-L-Lys-SBzl
In short: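 Serum-purified human factor D (80 nM final) preincubated 5 min at room temperature with test compound in 50 mM Tris, 1M NaCl, pH 7.5. Z-L-Lys-SBzl substrate and DTNB then added, each at 100 μM final. IC50 from nonlinear regression of reaction rate against compound concentration.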

Sequence of Human Factor D (P00746 26-253): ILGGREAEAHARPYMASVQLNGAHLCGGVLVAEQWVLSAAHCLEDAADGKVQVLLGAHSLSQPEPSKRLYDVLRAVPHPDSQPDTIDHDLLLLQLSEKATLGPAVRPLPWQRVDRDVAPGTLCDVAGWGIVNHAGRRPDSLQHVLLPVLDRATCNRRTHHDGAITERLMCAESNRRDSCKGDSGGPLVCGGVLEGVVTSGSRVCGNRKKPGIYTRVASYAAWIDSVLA

Row | SMILES | IC50 (Table 4) [µM] | IC50 (Table 3) [µM]
1 | COc1ncc(-c2ccc3c(c2)c(C(C)=O)nn3CC(=O)N2C[C@H](F)C[C@H]2C(=O)Nc2nc(Br)ccc2C)cn1 [Compound 554, (2S,4R)-1-(2-(3-acetyl-5-(2-methoxypyrimidin-5-yl)-1H-indazol-1-yl)acetyl)-N-(6-bromo-3-methylpyridin-2-yl)-4-fluoropyrrolidine-2-carboxamide] | < 1 | 
2 | Cc1cccc(NC(=O)[C@@H]2CCC(F)CCN2C(=O)Cn2cc(C(N)=O)c3cc(-c4ccc(N)nc4)ccc32)n1 (stereo partly drawn) [Compound 595, 5-(6-Aminopyridin-3-yl)-1-(2-((2S)-5-fluoro-2-((6-methylpyridin-2-yl)carbamoyl)azepan-1-yl)-2-oxoethyl)-1H-indole-3-carboxamide] | > 10 | 
3 | CC(=O)c1nn(CC(=O)N2C[C@H](F)C[C@H]2C(=O)OCc2ccc(Br)nc2N)c2ccc(-c3cnc(C)nc3)cc12 [Compound 570, (2S,4R)-(2-amino-6-bromopyridin-3-yl)methyl 1-(2-(3-acetyl-5-(2-methylpyrimidin-5-yl)-1H-indazol-1-yl)acetyl)-4-fluoropyrrolidine-2-carboxylate] | > 10 | 
4 | Cc1ncc(-c2ccc3c(c2)c(C(N)=S)nn3CC(=O)N2C[C@H](F)C[C@H]2C(=O)Nc2cccc(Br)n2)cn1 [Compound 527, (2S,4R)—N-(6-Bromopyridin-2-yl)-1-(2-(3-carbamothioyl-5-(2-methylpyrimidin-5-yl)-1H-indazol-1-yl)acetyl)-4-fluoropyrrolidine-2-carboxamide] |  | < 1
5 | Cc1cccc(NC(=O)[C@@H]2CCC(F)CCN2C(=O)Cn2cc(C(N)=O)c3cc(-c4cnc(C)nc4)ccc32)n1 (stereo partly drawn) [Compound 578, 1-(2-((2S)-5-Fluoro-2-((6-methylpyridin-2-yl)carbamoyl)azepan-1-yl)-2-oxoethyl)-5-(2-methylpyrimidin-5-yl)-1H-indole-3-carboxamide] | > 10 | 
6 | CC(=O)c1nn(CC(=O)N2C[C@H](F)C[C@H]2CC(=O)NC#N)c2ccc(-c3cnc(C)nc3)cc12 [Compound 579, 2-((2R,4R)-1-(2-(3-Acetyl-5-(2-methylpyrimidin-5-yl)-1H-indazol-1-yl)acetyl)-4-fluoropyrrolidin-2-yl)-N-cyanoacetamide] | > 10 | 
7 | CC(=O)c1nn(CC(=O)N2C[C@H](F)C[C@H]2C(=O)N2CCn3c(nnc3C(F)(F)F)C2)c2ccc(-c3cnc(C)nc3)cc12 [Compound 524, 2-(3-acetyl-5-(2-methylpyrimidin-5-yl)-1H-indazol-1-yl)-1-((2S,4R)-4-fluoro-2-(3-(trifluoromethyl)-5,6,7,8-tetrahydro-[1,2,4]triazolo[4,3-a]pyrazine-7-carbonyl)pyrrolidin-1-yl)ethanone] |  | > 10
8 | CC(=O)c1nn(CC(=O)N2C[C@H](F)C[C@H]2CNS(=O)(=O)c2cccc(Cl)c2F)c2ccc(-c3cnc(C)nc3)cc12 [Compound 563, N-(((2S,4R)-1-(2-(3-acetyl-5-(2-methylpyrimidin-5-yl)-1H-indazol-1-yl)acetyl)-4-fluoropyrrolidin-2-yl)methyl)-3-chloro-2-fluorobenzene-sulfonamide] | < 1 | 
9 | COc1cc(CC(=O)N2C[C@H](F)C[C@H]2C(=O)Nc2cccc(-c3ccccc3Cl)c2F)cc(-c2cnc(C)nc2)c1 [Compound 636, (2S,4R)—N-(2′-chloro-2-fluoro-[1,1′-biphenyl]-3-yl)-4-fluoro-1-(2-(3-methoxy-5-(2-methylpyrimidin-5-yl)phenyl)acetyl)pyrrolidine-2-carboxamide] | < 1 | 
10 | COP(=O)(CC(=O)c1nn(CC(=O)N2C[C@H](F)C[C@H]2C(=O)Nc2cccc(Br)n2)c2ccc(-c3cnc(C)nc3)cc12)OC [Compound 625, dimethyl (2-(1-(2-((2S,4R)-2-((6-bromopyridin-2-yl)carbamoyl)-4-fluoropyrrolidin-1-yl)-2-oxoethyl)-5-(2-methylpyrimidin-5-yl)-1H-indazol-3-yl)-2-oxoethyl)phos-phonate] | > 10 | 
11 | Cc1ncc(-c2ccc3c(c2)c(C(C)O)nn3CC(=O)N2C[C@H](F)C[C@H]2C(=O)O)cn1 (stereo partly drawn) [Compound 631, (2S,4R)-4-Fluoro-1-(2-(3-(1-hydroxyethyl)-5-(2-methylpyrimidin-5-yl)-11-indazol-1-yl)acetyl)pyrrolidine-2-carboxylic Acid] | > 10 | 
12 | CC(=O)c1nn(CC(=O)N2C[C@H](F)C[C@H]2C(=O)Nc2cccc(-c3ccc4scnc4c3)c2F)c2ccc(-c3cnc(C)nc3)cc12 [Compound 520, (2S,4R)-1-(2-(3-acetyl-5-(2-methylpyrimidin-5-yl)-1H-indazol-1-yl)acetyl)-N-(3-(benzo[d]thiazol-5-yl)-2-fluorophenyl)-4-fluoropyrrolidine-2-carboxamide] |  | < 1
13 | CC(=O)c1nn(CC(=O)NCc2ccccc2CC(=O)O)c2ccc(-c3cnc(C)nc3)cc12 [Compound 536, 2-(2-((2-(3-acetyl-5-(2-methylpyrimidin-5-yl)-1H-indazol-1-yl)acetamido)meth-yl)phenyl)acetic acid] | > 10 | 
14 | COC(=O)[C@@H]1C[C@@H](F)CN1C(=O)Cn1nc(C(C)=O)c2cc(-c3cnc(C)nc3)ccc21 [Compound 513, (2S,4R)-methyl 1-(2-(3-acetyl-5-(2-methylpyrimidin-5-yl)-1H-indazol-1-yl)acetyl)-4-fluoropyrrolidine-2-carboxylate] |  | > 10
15 | CC(=O)c1nn(CC(=O)N2C[C@H](F)C[C@H]2CNC(=O)c2cccc(Cl)c2F)c2ccc(-c3cnc(C)nc3)cc12 [Compound 562, N-(((2S,4R)-1-(2-(3-acetyl-5-(2-methylpyrimidin-5-yl)-1H-indazol-1-yl)acetyl)-4-fluoropyrrolidin-2-yl)methyl)-3-chloro-2-fluorobenzamide] | > 10 | 
16 | CC(=O)c1nn(CC(=O)N2C[C@H](F)C[C@H]2[C@H](O)Cc2cccc(Br)n2)c2ccc(-c3cnc(C)nc3)cc12 [Compound 540, 2-(3-Acetyl-5-(2-methylpyrimidin-5-yl)-1H-indazol-1-yl)-1-((2S,4R)-2-((R)-2-(6-bromopyridin-2-yl)-1-hydroxyethyl)-4-fluoropyrrolidin-1-yl)ethanone] | 1 to 10 | 
17 | CC(=O)c1cn(CC(=O)NC(CC(F)(F)F)C(=O)Nc2cccc(-c3ccccc3Cl)c2F)c2ccc(-c3cnc(C)nc3)cc12 (centres unmarked) [Compound 507, 2-(2-(3-Acetyl-5-(2-methylpyrimidin-5-yl)-1H-indol-1-yl)acetamido)-N-(2′-chloro-2-fluorobiphenyl-3-yl)-4,4,4-trifluorobutanamide] |  | > 10
18 | CCOP(=O)(OCC)OC[C@@]12C[C@@H]1N(C(=O)Cn1nc(C(C)=O)c3cc(-c4cnc(C)nc4)ccc31)[C@H](C(=O)Nc1cccc(Br)n1)C2 [Compound 628, ((1S,3S,5R)-2-(2-(3-acetyl-5-(2-methylpyrimidin-5-yl)-1H-indazol-1-yl)acetyl)-3-((6-bromopyridin-2-yl)carbamoyl)-2-azabicyclo[3.1.0]hex-an-5-yl)methyl diethyl phosphate] | 1 to 10 | 
19 | CCOP(=O)(OCC)OC[C@@]12C[C@@H](C(=O)Nc3cccc(Br)n3)N(C(=O)Cn3nc(C(C)=O)c4cc(-c5cnc(C)nc5)ccc43)[C@@H]1C2 [Compound 582, ((1R,3S,5S)-2-(2-(3-Acetyl-5-(2-methylpyrimidin-5-yl)-1H-indazol-1-yl)acetyl)-3-(6-bromopyridin-2-ylcarbamoyl)-2-azabicyclo[3.1.0]hexan-5-yl)methyl diethyl phosphate] | < 1 | 
20 | Cc1ncc(-c2ccc3c(c2)c(C(=N)N)nn3CC(=O)N2C[C@H](F)C[C@H]2C(=O)Nc2cccc(-c3ccccc3Cl)c2F)cn1 [Compound 542, (2S,4R)-1-(2-(3-Carbamimidoyl-5-(2-methylpyrimidin-5-yl)-1H-indazol-1-yl)acetyl)-N-(2′-chloro-2-fluoro-[1,1′-biphenyl]-3-yl)-4-fluoropyrrolidine-2-carboxamide] | < 1 | 
21 | COC(=O)C[C@H]1CCCN1C(=O)Cn1nc(C(C)=O)c2cc(-c3cnc(C)nc3)ccc21 [Compound 509, (R)-methyl 2-(1-(2-(3-acetyl-5-(2-methylpyrimidin-5-yl)-1H-indazol-1-yl)acetyl)pyrrolidin-2-yl)acetate] |  | > 10
22 | CC(=O)c1nn(CC(=O)N2C[C@H](F)C[C@H]2CC(=O)O)c2ccc(-c3cnc(C)nc3)cc12 [Compound 577, 2-((2R,4R)-1-(2-(3-Acetyl-5-(2-methylpyrimidin-5-yl)-1H-indazol-1-yl)acetyl)-4-fluoropyrrolidin-2-yl)acetic Acid] | > 10 | 
23 | Cc1ncc(-c2ccc3c(c2)c([C@@H](C)O)nn3CC(=O)N2C[C@H](F)C[C@H]2C(=O)O)cn1 [Compound 550, (2S,4R)-4-fluoro-1-(2-(3-((R)-1-hydroxyethyl)-5-(2-methylpyrimidin-5-yl)-1H-indazol-1-yl)acetyl)pyrrolidine-2-carboxylic acid] | > 10 | 
24 | CC(=O)c1nn(CC(=O)N2C[C@H](F)C[C@H]2C(=O)Nc2cccc(-c3ccc4scnc4c3)c2F)c2ccc(-c3cnc(C)nc3)cc12 [Compound 638, (2S,4R)-1-(2-(3-acetyl-5-(2-methylpyrimidin-5-yl)-1H-indazol-1-yl)acetyl)-N-(3-(benzo[d]thiazol-5-yl)-2-fluorophenyl)-4-fluoropyrrolidine-2-carboxamide] | < 1 | 
25 | CC(=O)c1cn(CC(=O)N[C@H](C(=O)Nc2cccc(-c3ccccc3Cl)c2F)[C@@H](C)O)c2ccc(-c3cnc(C)nc3)cc12 [Compound 500] |  | < 1
26 | Cc1cc2ncc(-c3nc4c(s3)c(C(N)=O)nn4CC(=O)N3C[C@H](F)C[C@H]3C(=S)NC3CCC(c4cc5sccc5s4)C3)cn2n1 (stereo partly drawn) [Compound 640, 1-(2-((2S,4R)-4-fluoro-2-((3-(thieno[3,2-b]thiophen-2-yl)cyclopentyl)carba-mothioyl)pyrrolidin-1-yl)-2-oxoethyl)-5-(2-methylpyrazolo[1,5-a]pyrimidin-6-yl)-1H-pyrazolo[3,4-d]thiazole-3-carboxamide] | > 10 | 
